# Measurements taken from US12209102B2, “Heterocyclic compounds and uses thereof” (Kumquat Biosciences Inc., priority 2022, dated 2025).
# Assays:
# Type in all cases: biochemical
# [1] = target: T1, K-Ras G12S (Homo sapiens, UniProt P01116, G12S); assay: HTRF resonance energy transfer assay, K-Ras G12S / SOS1 interaction; settings: HTRF assay of Example 5; read-out: IC50 against K-Ras G12S
# T1 construct: made in house; host or cells: E. coli BL21 (DE3)
# Text: (§1) This assay can be also used to assess a selective inhibition or reduction of signaling output of a mutant Ras protein relative to a wildtype, or relative to a different mutant Ras protein. For example, the equilibrium interaction of wildtype Kras or K-Ras mutant (e.g., wildtype or a mutant thereof) with SOS1 (e.g., hSOS1) can be assessed as a proxy or an indication for a subject compound's ability to bind and inhibit Ras protein. HTRF assay detects from (i) a fluorescence resonance energy transfer (FRET) donor (e.g., antiGST-Europium) that is bound to GST-tagged K-Ras mutant to (ii) a FRET acceptor (e.g., anti-6His-XL665) bound to a His-tagged hSOS1.
# (§2) The assay buffer can contain˜5 mM HEPES pH 7.4, ˜150 mM NaCl, ˜ 1 mM DTT, 0.05% BSA and 0.0025%(v/v) Igepal. A Ras working solution is prepared in an assay buffer containing typically a suitable amount of the protein construct (e.g., GST-tagged K-Ras mutant) and the FRET donor (e.g., antiGST-Eu(K) from Cisbio, France). A SOS1 working solution is prepared in an assay buffer containing suitable amount of the protein construct (e.g., His-hSOS1) and the FRET acceptor (e.g., anti-6His-XL665 from Cisbio, France). A suitable amount of the protein construct will depend on the range of activity or range of IC50 values being detected or under investigation. For detecting IC50 within a range of 500 nM, the protein constructs of the same range of molarity can be utilized.
# (§3) A fixed volume of DMSO with or without test compound is transferred into a 384-well plate. Ras working solution is added to all wells of the test plate. SOS1 working solution is added to all wells except for those that are subsequently filled the inhibitor control solution. Upon incubation for about 10 minutes or longer, the fluorescence is measured with a M1000Pro plate reader (Tecan) using HTRF detection (excitation 337 nm, emission 1: 620 nm, emission 2: 665 nm). Compounds are tested in duplicates at different concentrations (for example, 10 μM, 2.5 μM, 0.63 μM, 0.16 μM, 0.04 μM, 0.01 μM test compound). The ratiometric data (i.e., emission 2 divided by emission 1) is used to calculate IC50 values against Ras using GraphPad Prism (GraphPad software). Following this general procedure, samples were tested with or without a subject compound disclosed herein including compounds exemplified in Table 1 to assess their abilities to inhibit a K-Ras mutant relative to another mutant or WT. Signaling output measured in terms of IC50 values can be obtained, a ratio of IC50 against one mutant relative to another mutant can be calculated. For instance, a selective reduction of K-Ras G12D signaling output can be evidenced by a ratio greater than one. In particular, a selective reduction of K-Ras G12D signaling relative to K-Ras WT signaling is evidenced as the ratio of IC50 (against K-Ras WT) to IC50 (against K-Ras G12D) is greater than 1.
# [2] = target: T2, K-Ras G12V (Homo sapiens, UniProt P01116, G12V); assay: HTRF resonance energy transfer assay, K-Ras G12V / SOS1 interaction; settings: HTRF assay of Example 5; read-out: IC50 against K-Ras G12V
# T2 construct: made in house; host or cells: E. coli BL21 (DE3)
# Text: as §1, §2, §3
# [3] = target: T3, K-Ras WT (Homo sapiens, UniProt P01116); assay: HTRF resonance energy transfer assay, K-Ras WT / SOS1 interaction; settings: HTRF assay of Example 5; read-out: IC50 against K-Ras WT
# T3 construct: made in house; host or cells: E. coli BL21 (DE3)
# Text: as §1, §2, §3
# [4] = target: T4, K-Ras G12D (Homo sapiens, UniProt P01116, G12D); assay: HTRF resonance energy transfer assay, K-Ras G12D / SOS1 interaction; settings: HTRF assay of Example 5; read-out: IC50 against K-Ras G12D
# T4 construct: made in house; host or cells: E. coli BL21 (DE3)
# Text: as §1, §2, §3
# T2 sequence (P01116 1-188 isoform P01116-2 G12V): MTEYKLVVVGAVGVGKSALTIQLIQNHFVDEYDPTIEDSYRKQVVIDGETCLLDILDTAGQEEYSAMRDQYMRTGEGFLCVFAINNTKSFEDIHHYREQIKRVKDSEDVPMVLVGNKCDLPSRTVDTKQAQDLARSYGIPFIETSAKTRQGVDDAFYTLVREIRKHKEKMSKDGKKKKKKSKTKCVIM
# T4 sequence (P01116 1-188 isoform P01116-2 G12D): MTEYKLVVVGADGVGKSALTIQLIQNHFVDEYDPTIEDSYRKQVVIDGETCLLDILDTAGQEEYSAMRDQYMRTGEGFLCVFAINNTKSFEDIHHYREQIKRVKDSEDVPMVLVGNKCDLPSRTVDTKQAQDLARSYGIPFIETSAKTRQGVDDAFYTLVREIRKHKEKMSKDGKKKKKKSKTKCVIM
# T3 sequence (P01116 1-188 isoform P01116-2): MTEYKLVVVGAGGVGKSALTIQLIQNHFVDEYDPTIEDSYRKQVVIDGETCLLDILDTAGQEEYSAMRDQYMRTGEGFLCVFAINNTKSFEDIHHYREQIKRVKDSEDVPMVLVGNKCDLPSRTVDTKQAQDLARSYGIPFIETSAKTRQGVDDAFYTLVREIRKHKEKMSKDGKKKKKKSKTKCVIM
# T1 sequence (P01116 1-188 isoform P01116-2 G12S): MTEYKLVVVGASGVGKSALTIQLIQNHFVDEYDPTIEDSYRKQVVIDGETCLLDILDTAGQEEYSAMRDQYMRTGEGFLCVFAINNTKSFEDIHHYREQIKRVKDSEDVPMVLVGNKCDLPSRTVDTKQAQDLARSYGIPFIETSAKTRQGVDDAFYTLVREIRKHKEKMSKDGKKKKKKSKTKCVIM
SMILES,IC50 [1] [nM],IC50 [2] [nM],IC50 [3] [nM],IC50 [4] [nM]
"N#Cc1c(N)sc2c(F)ccc(-c3c(Cl)c4c5c(nc(OC[C@@]67CCCN6C[C@H](F)C7)nc5c3F)N(CC(F)F)C(c3cnco3)CO4)c12 (single isomer, unassigned) [Compound 860]",< 100,< 100,< 100,
"N#Cc1c(N)sc2c(F)ccc(-c3c(Cl)c4c5c(nc(OC[C@@]67CCCN6C[C@H](F)C7)nc5c3F)N(C3CCOC3)[C@@H](C(F)F)CO4)c12 (stereo partly drawn) [Compound 620, 2-amino-4-((5R)-8-chloro-5-(difluoromethyl)-10-fluoro-2-(((2R,7aS)-2-fluorotetrahydro-1H-pyrrolizin-7a(5H)-yl)methoxy)-4-(tetrahydrofuran-3-yl)-5,6-dihydro-4H-[1,4]oxazepino[5,6,7-de]quinazolin-9-yl)-7-fluorobenzo[b]thiophene-3-carbonitrile]",,,< 100,< 100
"N#Cc1c(N)sc2c(F)ccc(-c3c(Cl)c4c5c(nc(OC[C@@]67CCCN6C[C@H](F)C7)nc5c3F)N(CC(F)F)C(C3CN(C(=O)C5CN5)C3)CO4)c12 (stereo partly drawn) [Compound 762, 2-amino-4-(5-(1-(aziridine-2-carbonyl)azetidin-3-yl)-8-chloro-4-(2,2-difluoroethyl)-10-fluoro-2-(((2R,7aS)-2-fluorotetrahydro-1H-pyrrolizin-7a(5H)-yl)methoxy)-5,6-dihydro-4H-[1,4]oxazepino[5,6,7-de]quinazolin-9-yl)-7-fluorobenzo[b]thiophene-3-carbonitrile]",< 100,< 100,< 100,
"N#Cc1c(N)sc2c(F)ccc(-c3c(Cl)c4c5c(nc(OC[C@@]67CCCN6C[C@H](F)C7)nc5c3F)N(CC(F)F)[C@@H](CNC(=O)CC3COC3)CO4)c12 [Compound 766, N-(((5S)-9-(2-amino-3-cyano-7-fluorobenzo[b]thiophen-4-yl)-8-chloro-4-(2,2-difluoroethyl)-10-fluoro-2-(((2R,7aS)-2-fluorotetrahydro-1H-pyrrolizin-7a(5H)-yl)methoxy)-5,6-dihydro-4H-[1,4]oxazepino[5,6,7-de]quinazolin-5-yl)methyl)-2-(oxetan-3-yl)acetamide]",< 100,< 100,< 100,
"C[C@H]1COc2c(Cl)c(-c3ccc(F)c4sc(N)c(C#N)c34)c(F)c3nc(OC[C@@]45CCCN4C[C@H](F)C5)nc(c23)N1CC(F)F [Compound 783, 2-amino-4-((5S)-8-chloro-4-(2,2-difluoroethyl)-10-fluoro-2-(((2R,7aS)-2-fluorotetrahydro-1H-pyrrolizin-7a(5H)-yl)methoxy)-5-methyl-5,6-dihydro-4H-[1,4]oxazepino[5,6,7-de]quinazolin-9-yl)-7-fluorobenzo[b]thiophene-3-carbonitrile]",,,,< 100
"N#Cc1c(N)sc2c(F)ccc(-c3c(Cl)c4c5c(nc(OC[C@@]67CCCN6C[C@H](F)C7)nc5c3F)N(CC(F)F)C(c3cncs3)CO4)c12 (stereo partly drawn) [Compound 789, 2-amino-4-(8-chloro-4-(2,2-difluoroethyl)-10-fluoro-2-(((2R,7aS)-2-fluorotetrahydro-1H-pyrrolizin-7a(5H)-yl)methoxy)-5-(thiazol-5-yl)-5,6-dihydro-4H-[1,4]oxazepino[5,6,7-de]quinazolin-9-yl)-7-fluorobenzo[b]thiophene-3-carbonitrile]",< 100,< 100,< 100,
"C[C@H]1CN(CC2(N(C)C)CCC2)c2nc(OC[C@@]34CCCN3C[C@H](F)C4)nc3c(F)c(-c4ccc(F)c5sc(N)c(C#N)c45)c(Cl)c(c23)O1 [Compound 910, 2-amino-4-((6S)-8-chloro-4-((1-(dimethylamino)cyclobutyl)methyl)-10-fluoro-2-(((2R,7aS)-2-fluorotetrahydro-1H-pyrrolizin-7a(5H)-yl)methoxy)-6-methyl-5,6-dihydro-4H-[1,4]oxazepino[5,6,7-de]quinazolin-9-yl)-7-fluorobenzo[b]thiophene-3-carbonitrile]",,,< 100,< 100
"CC(OC(F)F)C12CC(N3CCOc4c(Cl)c(-c5ccc(F)c6sc(N)c(C#N)c56)c(F)c5nc(OC[C@@]67CCCN6C[C@H](F)C7)nc3c45)(C1)C2 (stereo partly drawn) [Compound 1081, 2-amino-4-(8-chloro-4-(3-(1-(difluoromethoxy)ethyl)bicyclo[1.1.1]pentan-1-yl)-10-fluoro-2-(((2R,7aS)-2-fluorotetrahydro-1H-pyrrolizin-7a(5H)-yl)methoxy)-5,6-dihydro-4H-[1,4]oxazepino[5,6,7-de]quinazolin-9-yl)-7-fluorobenzo[b]thiophene-3-carbonitrile]",< 100,< 100,< 100,
"N#Cc1c(N)sc2c(F)ccc(-c3c(Cl)c4c5c(nc(OC[C@@]67CCCN6C[C@H](F)C7)nc5c3F)N(CC(F)F)[C@H](C(F)F)CO4)c12 [Compound 1099, 2-amino-4-((S)-8-chloro-4-(2,2-difluoroethyl)-5-(difluoromethyl)-10-fluoro-2-(((2R,7aS)-2-fluorotetrahydro-1H-pyrrolizin-7a(5H)-yl)methoxy)-5,6-dihydro-4H-[1,4]oxazepino[5,6,7-de]quinazolin-9-yl)-7-fluorobenzo[b]thiophene-3-carbonitrile]",< 100,< 100,< 100,
"C[C@H](Oc1nc2c3c(c(Cl)c(-c4ccc(F)c5sc(N)c(C#N)c45)c(F)c3n1)OCCN2C1CCCOCC1)[C@@H]1CCCN1C (stereo partly drawn) [Compound 1121, 2-amino-4-(8-chloro-10-fluoro-2-((S)-1-((S)-1-methylpyrrolidin-2-yl)ethoxy)-4-(oxepan-4-yl)-5,6-dihydro-4H-[1,4]oxazepino[5,6,7-de]quinazolin-9-yl)-7-fluorobenzo[b]thiophene-3-carbonitrile]",< 100,< 100,< 100,
"N#Cc1c(N)sc2c(F)ccc(-c3c(Cl)c4c5c(nc(OC[C@@]67CCCN6C[C@H](F)C7)nc5c3F)N(C3CCOC3)[C@@H](C3(C#N)CC3)CO4)c12 (stereo partly drawn) [Compound 1130, 2-amino-4-((5S)-8-chloro-5-(1-cyanocyclopropyl)-10-fluoro-2-(((2R,7aS)-2-fluorotetrahydro-1H-pyrrolizin-7a(5H)-yl)methoxy)-4-(tetrahydrofuran-3-yl)-5,6-dihydro-4H-[1,4]oxazepino[5,6,7-de]quinazolin-9-yl)-7-fluorobenzo[b]thiophene-3-carbonitrile]",< 100,< 100,< 100,
"CN1c2nc(OC[C@@]34CCCN3C[C@H](F)C4)nc3c(F)c(-c4ccc(F)c5sc(N)c(C#N)c45)c(Cl)c(c23)OCC[C@H]1C1(F)CC1 [Compound 1221, 2-amino-4-((5S)-9-chloro-11-fluoro-5-(1-fluorocyclopropyl)-2-(((2R,7aS)-2-fluorotetrahydro-1H-pyrrolizin-7a(5H)-yl)methoxy)-4-methyl-4,5,6,7-tetrahydro-[1,5]oxazocino[4,3,2-de]quinazolin-10-yl)-7-fluorobenzo[b]thiophene-3-carbonitrile]",< 100,< 100,< 100,
